Results: patent US12473250B2, “Molecular design of new antibiotics and antibiotic adjuvants against MCR strains” (priority 2019, dated 2025)

What was measured:
[1] = tested on: KLPN multi-drug resistant strains; assay: MIC against multi-drug resistant strains (Table 5); type: cell-based, Klebsiella pneumonia; conditions: alone
Procedure: MIC experiments of the antimicrobial agents were determined by a modified broth microdilution method in accordance with the Clinical and Laboratory Standards Institute (CLSI) guidelines using 96 well culture plates. In brief, serial dilutions of all plates were prepared at different concentrations (μg). The inoculum suspension was prepared by adding isolated colonies from a 18-20 hours on TSA plate into phosphate buffer (0.31 mM, pH 7.2) or in water for injection (BBraun) and adjusting the suspension to a turbidity equivalent to 0.5 McFarland Standard. Each well contained a final bacterial concentration of approximately 5×10^5 colony forming units (CFU)/mL. The plate was covered and incubated at 35° C. for 24 hours. […] For the microdilution plates, turbidity in wells can be measured at OD600 using TECAN infinite M200Pro. MIC was determined as […] concentration that gives a 99 percent inhibition.

various pathogens = assay: organism not typed; type: cell-based
Outline: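 Broth microdilution MIC per CLSI: each agent alone and LC compound plus antibiotic (e.g. colistin) combined in equal amounts, serially diluted 2-fold at fixed synergy concentration.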

[2] = 6093560257 [MCR 1+, E. Coli, NDM-1]
[3] = 7103531927 [MCR 1+, E. Coli, KPC+]
[4] = 7113636863 [MCR 1+, E. Coli, NDM-1]

In the case of Colistin, the MIC ([1]; strain KLPN 8852) is reported as >50 µg/mL, the MIC ([1]; strain KLPN 15588) is reported as 1.56 µg/mL and the MIC ([1]; strain KLPN 24076) is reported as 1.56 µg/mL. For the same substance, the MIC ([1]; strain KLPN 27025) was 1.56 µg/mL, the “FOLD CHANGES [Absorbance (abs; OD 600 nm)] No Treatment [Bacteria alone]: Colistin 0.5 μg” value (various pathogens; 6083655967 [MCR 1+, E. Coli]) was 1.10 and the “FOLD CHANGES [Absorbance (abs; OD 600 nm)] No Treatment [Bacteria alone]: MIC Colistin” value (various pathogens; 6083655967 [MCR 1+, E. Coli]) was 19.59. For the same substance, the MIC (various pathogens; 6083655967 [MCR 1+, E. Coli]) was 6.25 µg/mL, the “FOLD CHANGES [Absorbance (abs; OD 600 nm)] No Treatment [Bacteria alone]: Colistin 0.5 μg” value (various pathogens; [2]) was 1.14 and the “FOLD CHANGES [Absorbance (abs; OD 600 nm)] No Treatment [Bacteria alone]: MIC Colistin” value (various pathogens; [2]) was 21.59. The MIC (various pathogens; [2]) was 6.25 µg/mL, the “FOLD CHANGES [Absorbance (abs; OD 600 nm)] No Treatment [Bacteria alone]: Colistin 0.5 μg” value (various pathogens; 6123520276 [MCR 1+, E. Coli]) was 1.04 and the “FOLD CHANGES [Absorbance (abs; OD 600 nm)] No Treatment [Bacteria alone]: MIC Colistin” value (various pathogens; 6123520276 [MCR 1+, E. Coli]) was 20.10. The MIC (various pathogens; 6123520276 [MCR 1+, E. Coli]) was 6.25 µg/mL, the “FOLD CHANGES [Absorbance (abs; OD 600 nm)] No Treatment [Bacteria alone]: Colistin 0.5 μg” value (various pathogens; 7023436560 [MCR 1+, E. Coli]) was 1.14 and the “FOLD CHANGES [Absorbance (abs; OD 600 nm)] No Treatment [Bacteria alone]: MIC Colistin” value (various pathogens; 7023436560 [MCR 1+, E. Coli]) was 18.70. The MIC (various pathogens; 7023436560 [MCR 1+, E. Coli]) was 6.25 µg/mL, the “FOLD CHANGES [Absorbance (abs; OD 600 nm)] No Treatment [Bacteria alone]: Colistin 0.5 μg” value (various pathogens; 7023444207 [MCR 1+, E. Coli]) was 1.10 and the “FOLD CHANGES [Absorbance (abs; OD 600 nm)] No Treatment [Bacteria alone]: MIC Colistin” value (various pathogens; 7023444207 [MCR 1+, E. Coli]) was 17.44. For the same substance, the MIC (various pathogens; 7023444207 [MCR 1+, E. Coli]) was 6.25 µg/mL, the “FOLD CHANGES [Absorbance (abs; OD 600 nm)] No Treatment [Bacteria alone]: Colistin 0.5 μg” value (various pathogens; 7023446108 [MCR 1−, E. Coli]) was 1.15 and the “FOLD CHANGES [Absorbance (abs; OD 600 nm)] No Treatment [Bacteria alone]: MIC Colistin” value (various pathogens; 7023446108 [MCR 1−, E. Coli]) was 18.04. For the same substance, the MIC (various pathogens; 7023446108 [MCR 1−, E. Coli]) was 6.25 µg/mL, the “FOLD CHANGES [Absorbance (abs; OD 600 nm)] No Treatment [Bacteria alone]: Colistin 0.5 μg” value (various pathogens; 7033607097 [MCR 1−, E. Coli]) was 1.35 and the “FOLD CHANGES [Absorbance (abs; OD 600 nm)] No Treatment [Bacteria alone]: MIC Colistin” value (various pathogens; 7033607097 [MCR 1−, E. Coli]) was 15.21. For the same substance, the MIC (various pathogens; 7033607097 [MCR 1−, E. Coli]) was 6.25 µg/mL, the “FOLD CHANGES [Absorbance (abs; OD 600 nm)] No Treatment [Bacteria alone]: Colistin 0.5 μg” value (various pathogens; [3]) was 1.06 and the “FOLD CHANGES [Absorbance (abs; OD 600 nm)] No Treatment [Bacteria alone]: MIC Colistin” value (various pathogens; [3]) was 17.67. The MIC (various pathogens; [3]) was 6.25 µg/mL, the “FOLD CHANGES [Absorbance (abs; OD 600 nm)] No Treatment [Bacteria alone]: Colistin 0.5 μg” value (various pathogens; [4]) was 1.06 and the “FOLD CHANGES [Absorbance (abs; OD 600 nm)] No Treatment [Bacteria alone]: MIC Colistin” value (various pathogens; [4]) was 16.97. The MIC (various pathogens; [4]) was 6.25 µg/mL, the “FOLD CHANGES [Absorbance (abs; OD 600 nm)] No Treatment [Bacteria alone]: Colistin 0.5 μg” value (various pathogens; ACBA 1003 (CI)) was 1.26 and the “FOLD CHANGES [Absorbance (abs; OD 600 nm)] No Treatment [Bacteria alone]: MIC Colistin” value (various pathogens; ACBA 1003 (CI)) was 12.60. The MIC (various pathogens; ACBA 1003 (CI)) was 1.56 µg/mL, the “FOLD CHANGES [Absorbance (abs; OD 600 nm)] No Treatment [Bacteria alone]: Colistin 0.5 μg” value (various pathogens; ACBA 1004 (CI)) was 1.09 and the “FOLD CHANGES [Absorbance (abs; OD 600 nm)] No Treatment [Bacteria alone]: MIC Colistin” value (various pathogens; ACBA 1004 (CI)) was 23.71. The MIC (various pathogens; ACBA 1004 (CI)) was 1.56 µg/mL, the “FOLD CHANGES [Absorbance (abs; OD 600 nm)] No Treatment [Bacteria alone]: Colistin 0.5 μg” value (various pathogens; ACBA 1005 (CI)) was 1.02 and the “FOLD CHANGES [Absorbance (abs; OD 600 nm)] No Treatment [Bacteria alone]: MIC Colistin” value (various pathogens; ACBA 1005 (CI)) was 22.34. For the same substance, the MIC (various pathogens; ACBA 1005 (CI)) was 1.56 µg/mL, the “FOLD CHANGES [Absorbance (abs; OD 600 nm)] No Treatment [Bacteria alone]: Colistin 0.5 μg” value (various pathogens; ACBA 1006 (CI)) was 1.12 and the “FOLD CHANGES [Absorbance (abs; OD 600 nm)] No Treatment [Bacteria alone]: MIC Colistin” value (various pathogens; ACBA 1006 (CI)) was 23.81. The MIC (various pathogens; ACBA 1006 (CI)) was 1.56 µg/mL, the “FOLD CHANGES [Absorbance (abs; OD 600 nm)] No Treatment [Bacteria alone]: Colistin 0.5 μg” value (various pathogens; ACBA 1010 (CI)) was 1.13 and the “FOLD CHANGES [Absorbance (abs; OD 600 nm)] No Treatment [Bacteria alone]: MIC Colistin” value (various pathogens; ACBA 1010 (CI)) was 21.43. The MIC (various pathogens; ACBA 1010 (CI)) was 0.39 µg/mL, the “FOLD CHANGES [Absorbance (abs; OD 600 nm)] No Treatment [Bacteria alone]: Colistin 0.5 μg” value (various pathogens; ACBA ATCC 19606) was 2.04 and the “FOLD CHANGES [Absorbance (abs; OD 600 nm)] No Treatment [Bacteria alone]: MIC Colistin” value (various pathogens; ACBA ATCC 19606) was 16.14. The MIC (various pathogens; ACBA ATCC 19606) was 0.78 µg/mL, the “FOLD CHANGES [Absorbance (abs; OD 600 nm)] No Treatment [Bacteria alone]: Colistin 0.5 μg” value (various pathogens; ACBA DR 43357) was 1.06 and the “FOLD CHANGES [Absorbance (abs; OD 600 nm)] No Treatment [Bacteria alone]: MIC Colistin” value (various pathogens; ACBA DR 43357) was 25.47. For the same substance, the MIC (various pathogens; ACBA DR 43357) was 1.56 µg/mL, the “FOLD CHANGES [Absorbance (abs; OD 600 nm)] No Treatment [Bacteria alone]: Colistin 0.5 μg” value (various pathogens; E. Coli ATCC 8739) was 1.85 and the “FOLD CHANGES [Absorbance (abs; OD 600 nm)] No Treatment [Bacteria alone]: MIC Colistin” value (various pathogens; E. Coli ATCC 8739) was 20.68. For the same substance, the MIC (various pathogens; E. Coli ATCC 8739) was 0.78 µg/mL, the “FOLD CHANGES [Absorbance (abs; OD 600 nm)] No Treatment [Bacteria alone]: Colistin 0.5 μg” value (various pathogens; E. Coli ATCC 10536) was 1.11 and the “FOLD CHANGES [Absorbance (abs; OD 600 nm)] No Treatment [Bacteria alone]: MIC Colistin” value (various pathogens; E. Coli ATCC 10536) was 18.42. The MIC (various pathogens; E. Coli ATCC 10536) was 0.78 µg/mL, the “FOLD CHANGES [Absorbance (abs; OD 600 nm)] No Treatment [Bacteria alone]: Colistin 0.5 μg” value (various pathogens; E. Coli ATCC 25922) was 1.23 and the “FOLD CHANGES [Absorbance (abs; OD 600 nm)] No Treatment [Bacteria alone]: MIC Colistin” value (various pathogens; E. Coli ATCC 25922) was 18.24. The MIC (various pathogens; E. Coli ATCC 25922) was 0.78 µg/mL, the “FOLD CHANGES [Absorbance (abs; OD 600 nm)] No Treatment [Bacteria alone]: Colistin 0.5 μg” value (various pathogens; E. Coli ATCC 35218) was 1.31 and the “FOLD CHANGES [Absorbance (abs; OD 600 nm)] No Treatment [Bacteria alone]: MIC Colistin” value (various pathogens; E. Coli ATCC 35218) was 24.46. The MIC (various pathogens; E. Coli ATCC 35218) was 0.78 µg/mL, the “FOLD CHANGES [Absorbance (abs; OD 600 nm)] No Treatment [Bacteria alone]: Colistin 0.5 μg” value (various pathogens; E. Coli CRE 11804) was 1.19 and the “FOLD CHANGES [Absorbance (abs; OD 600 nm)] No Treatment [Bacteria alone]: MIC Colistin” value (various pathogens; E. Coli CRE 11804) was 17.29. The MIC (various pathogens; E. Coli CRE 11804) was 0.78 µg/mL, the “FOLD CHANGES [Absorbance (abs; OD 600 nm)] No Treatment [Bacteria alone]: Colistin 0.5 μg” value (various pathogens; E. Coli CRE 17232) was 1.31 and the “FOLD CHANGES [Absorbance (abs; OD 600 nm)] No Treatment [Bacteria alone]: MIC Colistin” value (various pathogens; E. Coli CRE 17232) was 16.09. The MIC (various pathogens; E. Coli CRE 17232) was 0.78 µg/mL, the “FOLD CHANGES [Absorbance (abs; OD 600 nm)] No Treatment [Bacteria alone]: Colistin 0.5 μg” value (various pathogens; E. Coli CRE 17528) was 1.45 and the “FOLD CHANGES [Absorbance (abs; OD 600 nm)] No Treatment [Bacteria alone]: MIC Colistin” value (various pathogens; E. Coli CRE 17528) was 20.21. It also gave an MIC (various pathogens; E. Coli CRE 17528) of 0.78 µg/mL.
